Values belong to the molecule of their own block, whether it stands above or below them.
Assays:
[1] = tested on: MDM4 alternative splicing in Z-138 cells; experiment: MDM4 splicing RT-PCR; type: cell-based, human; details: 3-day exposure, 1.6 nM to 1 μM tested
Method: We confirmed PRMT5 inhibitor-induced alternative splicing of MDM4 from the full-length isoform (MDM4-FL) to the short isoform (MDM4-S) at both treatment concentrations, with the most robust changes after 3 days of compound exposure.
RNA was isolated from cell pellets as described above and was converted to cDNA using ABI High Capacity Reverse Transcription Reagents (4274966) per manufacturer’s instructions and PCR was performed as described elsewhere. Reaction products were separated using agarose ethidium bromide gel electrophoresis and visualized using a Bio-Rad VersaDoc Model 5000 imaging system.

[2] = tested on: p53 mutant MCL xenograft model, REC-1; experiment: REC-1 xenograft efficacy; type: in vivo, mouse; details: 100 mg/kg BID
Text: We also observed an increase in the expression of p53 target genes including p21/CDKN1 (Supplementary Figure S7B), confirming induction of p53 activity.

[3] = mouse pharmacokinetics; type: in vivo; details: data not shown
[4] = body weight of Z-138 tumour bearing mice; type: in vivo, mouse; details: any of the treatment groups
Text: Supplementary Figure S7. […] Z-138 tumour
Treatments were reinstated on day 32 for 2 weeks followed by a one week holiday.

[5] = tested on: SDMA in Z-138 tumors; experiment: SDMA in Z-138 tumour xenograft; type: in vivo, mouse; details: 7 days
Method: Treatment was re-instated on day 32 for 2 weeks followed by a 1 week holiday. […] QD doses evaluated include 0, 50, 100, and 200 mg/kg. […] Sampling 2 hours post last dose. […] SDMA ELISA was performed on homogenized cells and frozen tumour lysates. Fluorescence intensity generated by addition of Luminata Forte (Millipore #WBKUF0500) substrate was measured on a PerkinElmer Envision plate reader.

[6] = target: panel containing 20 methyltransferases including PRMT9; experiment: methyltransferase selectivity panel; type: biochemical; details: other methyltransferases including PRMT9, substrates near KM^app
Method: (A) Plots indicating the mode of inhibition against
IC50 values are graphed as a function of substrate concentration relative to Kmapp
(top panel, SAM; bottom panel, H4 1-21 peptide). Data points (closed vs. open
circles) represent two independent experiments. (B) IC50 values plotted as a
represent data generated using 0.8 nM PRMT5/MEP50 while closed circles
represent data with 4 nM PRMT5/MEP50 (top panel).
following a 60 minute Enz:SAM:Inh preincubation fit to a 3-parameter dose-
Enz:SAM:Inh preincubation. IC50 values were determined by fitting inhibition
data to a 3-parameter dose-response equation. Ki*app values were calculated
from IC50 values using the Cheng-Prusoff equation for a competitive inhibitor.

[7] = tested on: SDMA in a panel of breast and lymphoma cell lines; experiment: SDMA EC50 in breast and lymphoma cell line panel; type: cell-based; details: Homo sapiens; all cell lines of the panel; read-out: SDMA EC50 range
Method: SDMA ELISA was performed on homogenized cells and frozen tumour lysates. Fluorescence intensity generated by addition of Luminata Forte (Millipore #WBKUF0500) substrate was measured on a PerkinElmer Envision plate reader.
Cells were seeded in optical bottom cell culture plates and targets were probed with fluorescent secondary antibodies and DAPI stain. Quantification of nuclear SDMA and SMD3 levels was performed with a Molecular Devices […] high-content fluorescence imager and image analysis was performed with ImageExpress software.

SMILES: O=C(NC[C@H](O)CN1CCc2ccccc2C1)c1ccnc(NC2CCC2)c1 [GSK3203591]
concentration at which MDM4 alternative splicing was evident [1]: ≥ 8 nM

elimination half-life [3]: 1.8 h
IC50 [6]: > 40000 nM
EC50 [7]: 2 to 160 nM
SMILES: CC(=O)N1CCC(Nc2cc(C(=O)NC[C@H](O)CN3CCc4ccccc4C3)ncn2)CC1 [GSK3326595]
TGI [2]: 55%
body weight [4]: No significant body weight losses
SDMA % vehicle ([5]; 0.5 mg/kg BID): 71%
SDMA % vehicle ([5]; 1.4 mg/kg BID): 47%
SDMA % vehicle ([5]; 4.2 mg/kg BID): 28%
SDMA % vehicle ([5]; 12.5 mg/kg BID): 9%
SDMA % vehicle ([5]; 25 mg/kg BID): 5%
SDMA % vehicle ([5]; 50 mg/kg BID): 8%
SDMA % vehicle ([5]; 50 mg/kg QD): 16%
SDMA % vehicle ([5]; 100 mg/kg BID): 2%
SDMA % vehicle ([5]; 100 mg/kg QD): 12%
SDMA % vehicle ([5]; 200 mg/kg QD): 9%

Reference: publication PMC6018746, “Activation of the p53-MDM4 regulatory axis defines the anti-tumour response to PRMT5 inhibition through its role in regulating cellular splicing” (Scientific Reports, 2018)
